{"source": "patent US6379959B1", "about": "“Metalocarboxypeptidase inhibitors and derived molecules used as antitumor agents” (Universitat Autonoma de Barcelona, priority 1996, dated 2002)", "key": {"[1]": {"system": "human pancreatic adenocarcinoma cell line Capan-1", "experiment": "Proliferation test with tetrazolium salts, Capan-1 in medium with serum", "assay_type": "cell-based", "conditions": "23 days", "protocol": "In this test, with the aim of determining whether the presence of PCI in the culture medium produces some effect on the growth in vitro of the cellular lines, the final amount of cells was evaluated after a specific number of days, in presence and absence of inhibitor. The final number of cells was determined by means of tetrazolium salts (kit EZ4U) which, being added to the cultures, are reduced by mitochondrial enzymes of the cells, producing derivatives of formazan of a different colour. The amount of formed derivatives depends on the number of existing cells.\n1. In a culture plate of 96 wells, in 48 of them, 5,000 cells were seed. Of these 48:\nIn 8 wells (control), 200 μL of full medium (DMEM+10%FBS) were added without PCI. […]\n2. The cells were kept in an incubator at 37° C., 87% of relative humidity and 10% of CO2. The medium contained in the wells was changed every 3-4 days. The old medium was sucked out with a Pasteur pipette. Medium free of PCI was added to the control wells and, to the others, a medium with identical concentration of PCI to which they had previously, was also added.\n3. After a specific number of days, the number of cells per well was evaluated by means of the following procedure:\nTo calculate the result of the test, the following was done: the average of the A620 of the blank ones was substracted from the A620 of each well. Immediately after, the result of the previous subtraction, as well as the average of the A450 of the blank ones was substracted from the A450 of each well. The result thus obtained is directly proportional to the amount of cells present in the well. Next, the average and the typical deviation was obtained from the results of the wells which had undergone identical treatment.\nThe effect of the presence of the PCI can be expressed employing the cell growth percentage in relation to the controls (without PCI) which is easily calculated: [formula]\nA proliferation test with indirect determination of the number of cells by means of tetrazolium salts using the cell line Capan-1 was carried out. This is a human pancreatic adenocarcinoma cell line (ATCC nr. HTB-79), established by Fogh, G. et al. (1977) J. Natl. Cancer Inst., 58: 209-214, and Fogh, J. et al. (1977) J. Natl. Cancer Inst., 59: 221-226, from a liver metastasis.\nAs it has been explained, the cells were cultivated for 23 days, after which the cell growth was evaluated per well by means of tetrazolium salts. The results obtained are expressed in Table 3, where the average, the standard deviation and the standard error of the cell growth in relation to the controls are shown."}, "[2]": {"system": "trypsin", "experiment": "Gene expression analysis by Northern transfer, trypsin probe", "assay_type": "cell-based, human", "conditions": "for beta counts, Trypsin probe: 12 days, Capan-1 (control 511)", "protocol": "To verify whether the PCI plays any role in signal transduction, studies of gene expression were carried out by Northern transfer. The probes were: β2-microglobulin, p53 and trypsin. The β2-microglobulin is a constitutive gene that is used as a sample loading control in the gel. p53 is a transcription factor which, among other functions, controls the state of the genomic DNA and the cell cycle (Bates, S. & Vousden, K. H. (1996) Curr. Opin. Genet. Develop., 6: 12-19). If the DNA is damaged, p53 induces its repair and, if it is excessively damaged, it provokes programmed cellular death (apoptosis). Trypsin is a marker of pancreatic cells of the acinar type. The trypsin is not expressed by all the tumoral cells and it is believed that it is expressed by the cells with metastatic power and/or invasive power (Fernández, E. et al., (1994) Cancer, 73: 2285-2295). The probes employed are described as follows:\nIn the first place, 3×10^6 cells of the human pancreatic adenocarcinoma cell line Capan-1 were placed in each one of the 12 flasks of 150 cm^2. […] They were maintained in culture for 12 days period, changing their medium every 4 days, adding fresh PCI. Once the treatment was completed, the cells were trypsinized and the sediment of the cells was kept at −80° C. Afterwards, the extraction of the RNA was carried out.\nThe quantifying of the hybridized filters with the respective probes was done using a Betascope 601 blot Analyzer counter (Betagen, USA). The counting time was 45 min for the hybridized filter with the probe p53 and β2-microglobuline and 2 h for the trypsin probe.\nAssuming that the counts of the β2-Microglobuline are an indication of the total amount of poly(A^+) RNA, the data may be standardized as a percentage of counts of the band compared to the β2-microglobuline counts of the same cells, giving a value which depends on the abundance of the specific mRNA in relation to the total of mRNA."}}, "note": "Positions of bridges follow the written chain, without caps; N, C: chain ends. No end group written: not given here.", "data": [{"substance": "PCI: potato carboxypeptidase inhibitor, isoform IIa, obtained by recombinant DNA techniques in E. coli (SEQ ID NO.2) (EQHADPICNKPCKTHDDCSGAWFCQACWNSARTCGPYVG; disulfide 12-27, 18-34, 8-24)", "values": [{"measurement": "Growth (Percentage in relation to the average of the controls)", "setting": "[1]; 0.1 µg/mL PCI in the medium, DMEM+10%FBS", "value": 19.4, "unit": "%"}, {"measurement": "Growth (Percentage in relation to the average of the controls)", "setting": "[1]; 1 µg/mL PCI in the medium", "value": 17.1, "unit": "%"}, {"measurement": "Growth (Percentage in relation to the average of the controls)", "setting": "[1]; 10 µg/mL PCI in the medium", "value": 50.0, "unit": "%"}, {"measurement": "Growth (Percentage in relation to the average of the controls)", "setting": "[1]; 50 µg/mL PCI in the medium", "value": 44.8, "unit": "%"}, {"measurement": "Growth (Percentage in relation to the average of the controls)", "setting": "[1]; 200 µg/mL PCI in the medium", "value": 43.3, "unit": "%"}, {"measurement": "inhibition of the growth", "setting": "[1]; concentrations of 0.1 and 1 μg/mL", "value": "higher than 80%"}, {"measurement": "inhibition of the growth", "setting": "[1]; concentrations of 10, 50 and 200 μg/mL", "value": "~50", "unit": "%"}, {"measurement": "lower transcription of trypsin, inverse quotient (control/treatment)", "setting": "[2]; 1 mg/mL PCI", "value": 2.9, "unit": "times"}, {"measurement": "Trypsin/b2 (counts of one band in relation to those of β2-microglobuline)", "setting": "[2]; 1 mg/mL PCI (control 0.5351)", "value": 0.1814}, {"measurement": "beta counts, Trypsin probe", "setting": "[2]; 1 mg/mL PCI", "value": 396}, {"measurement": "lower transcription of trypsin, inverse quotient (control/treatment)", "setting": "[2]; 10 mg/mL PCI", "value": 7.8, "unit": "times"}, {"measurement": "Trypsin/b2 (counts of one band in relation to those of β2-microglobuline)", "setting": "[2]; 10 mg/mL PCI (control 0.5351)", "value": 0.0687}, {"measurement": "beta counts, Trypsin probe", "setting": "[2]; 10 mg/mL PCI", "value": 432}]}]}
